Where two headings read alike, the source gives them in different places.
How the values were obtained:
[1] = test system: MCF7 cells; test: MTT antiproliferative assay, MCF7; type: cell-based; conditions: Homo sapiens
Experimental: (§1) The in vitro inhibition assays of all final compounds against PI3K were performed by Shanghai ChemPartner Co., Ltd. (China). The antiproliferative activities of the compounds against A2780, U87MG, MCF7, and DU145 cell lines were tested by the standard MTT method. CHO cells stably expressing the transcript of hERG were investigated by the automated whole-cell patch clamp technique, using the QPatch system (Sophion). The compound was tested with Salmonella typhimurium strains TA98 and TA100 with the plate incorporation method at seven doses. Apoptosis was evaluated using the One-Step TUNEL Apoptosis Assay Kit (FITC) (cat. no. MA0223; Meilunbio, Dalian, China), according to the manufacturer’s protocol. Male and female SD rats (SLRC Laboratory Animal Inc., Shanghai, China) were used, and the detailed pharmacokinetic procedures are described in Supplementary Material.

[2] = test system: Salmonella typhimurium TA100; test: Ames test, plate incorporation, TA100; type: cell-based; conditions: control, dose not given
Experimental: as §1
(§2) S. typhimurium TA98 and TA100 were selected to conduct the Ames experiment to investigate the genotoxicity risk of compound 17p.

[3] = test system: A2780 cells; test: MTT antiproliferative assay, A2780; type: cell-based; conditions: Homo sapiens
Experimental: as §1

[4] = test system: Salmonella typhimurium TA98; test: Ames test, plate incorporation, TA98; type: cell-based; conditions: control, dose not given
Experimental: as §1, §2

[5] = test system: DU145 cells; test: MTT antiproliferative assay, DU145; type: cell-based; conditions: Homo sapiens, DU-145
Experimental: as §1

[6] = test system: U87MG cells; test: MTT antiproliferative assay, U87MG; type: cell-based; conditions: Homo sapiens, U-87 MG
Experimental: as §1

[7] = test system: HL-7702 cells; test: inhibitory activity on normal cells, HL-7702; type: cell-based; conditions: Homo sapiens, L02
Text: (§3) Several clinical PI3K candidates were severely intolerable to patients due to fatal hepatotoxicity and, thus, failed in clinical trials. Thus, evaluating the selectivity of compounds toward normal cells might reduce the risk of clinical failure of new compounds.

[8] = test system: MRC-5 cells; test: inhibitory activity on normal cells, MRC-5; type: cell-based; conditions: Homo sapiens, MRC5
Text: as §3

[9] = molecular target: T1, hERG (Homo sapiens, UniProt Q12809); test: hERG automated whole-cell patch clamp (QPatch), CHO cells; type: cell-based; conditions: human, CHO cells stably expressing hERG; CHO cells expressing hERG, patch clamp; read-out: IC50 on hERG potassium currents
T1 construct: expressed in transfected cells
T1 sequence (Q12809 whole entry): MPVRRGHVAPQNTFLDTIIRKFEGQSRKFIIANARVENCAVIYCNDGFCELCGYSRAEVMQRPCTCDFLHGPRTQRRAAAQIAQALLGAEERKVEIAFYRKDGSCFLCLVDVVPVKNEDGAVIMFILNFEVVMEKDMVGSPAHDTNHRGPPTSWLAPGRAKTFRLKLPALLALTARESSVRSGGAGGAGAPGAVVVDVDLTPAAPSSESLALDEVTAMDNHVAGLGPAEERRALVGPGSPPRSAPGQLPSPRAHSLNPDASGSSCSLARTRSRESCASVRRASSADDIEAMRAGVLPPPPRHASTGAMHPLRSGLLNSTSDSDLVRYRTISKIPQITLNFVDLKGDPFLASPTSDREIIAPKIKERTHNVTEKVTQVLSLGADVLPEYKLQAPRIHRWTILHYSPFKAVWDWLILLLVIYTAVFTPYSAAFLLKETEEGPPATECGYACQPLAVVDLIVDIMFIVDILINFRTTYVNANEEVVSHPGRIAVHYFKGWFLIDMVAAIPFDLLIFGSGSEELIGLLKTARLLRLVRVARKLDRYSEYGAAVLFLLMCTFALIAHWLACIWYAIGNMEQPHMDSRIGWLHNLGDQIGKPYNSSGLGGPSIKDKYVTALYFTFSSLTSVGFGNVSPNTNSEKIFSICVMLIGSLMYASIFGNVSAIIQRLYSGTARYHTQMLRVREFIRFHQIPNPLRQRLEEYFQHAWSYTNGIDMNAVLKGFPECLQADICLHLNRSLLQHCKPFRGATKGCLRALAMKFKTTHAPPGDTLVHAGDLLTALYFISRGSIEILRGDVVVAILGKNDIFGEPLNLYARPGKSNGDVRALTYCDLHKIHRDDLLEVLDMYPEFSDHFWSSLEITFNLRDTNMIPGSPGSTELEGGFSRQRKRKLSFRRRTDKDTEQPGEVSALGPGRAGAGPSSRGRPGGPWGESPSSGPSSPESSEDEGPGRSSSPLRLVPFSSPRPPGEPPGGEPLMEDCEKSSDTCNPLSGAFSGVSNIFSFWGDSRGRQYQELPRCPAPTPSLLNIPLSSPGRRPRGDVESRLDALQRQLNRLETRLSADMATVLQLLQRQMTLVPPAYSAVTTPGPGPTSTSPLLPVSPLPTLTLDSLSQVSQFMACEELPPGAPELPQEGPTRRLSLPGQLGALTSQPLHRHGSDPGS
Experimental: as §1
To evaluate cardiotoxicity, it is necessary to test inhibitory activity on hERG potassium currents.

[10] = molecular target: PI3Kα (Homo sapiens, UniProt P42336); test: in vitro PI3Kα kinase inhibition assay; type: biochemical
Sequence of PI3Kα (P42336 whole entry): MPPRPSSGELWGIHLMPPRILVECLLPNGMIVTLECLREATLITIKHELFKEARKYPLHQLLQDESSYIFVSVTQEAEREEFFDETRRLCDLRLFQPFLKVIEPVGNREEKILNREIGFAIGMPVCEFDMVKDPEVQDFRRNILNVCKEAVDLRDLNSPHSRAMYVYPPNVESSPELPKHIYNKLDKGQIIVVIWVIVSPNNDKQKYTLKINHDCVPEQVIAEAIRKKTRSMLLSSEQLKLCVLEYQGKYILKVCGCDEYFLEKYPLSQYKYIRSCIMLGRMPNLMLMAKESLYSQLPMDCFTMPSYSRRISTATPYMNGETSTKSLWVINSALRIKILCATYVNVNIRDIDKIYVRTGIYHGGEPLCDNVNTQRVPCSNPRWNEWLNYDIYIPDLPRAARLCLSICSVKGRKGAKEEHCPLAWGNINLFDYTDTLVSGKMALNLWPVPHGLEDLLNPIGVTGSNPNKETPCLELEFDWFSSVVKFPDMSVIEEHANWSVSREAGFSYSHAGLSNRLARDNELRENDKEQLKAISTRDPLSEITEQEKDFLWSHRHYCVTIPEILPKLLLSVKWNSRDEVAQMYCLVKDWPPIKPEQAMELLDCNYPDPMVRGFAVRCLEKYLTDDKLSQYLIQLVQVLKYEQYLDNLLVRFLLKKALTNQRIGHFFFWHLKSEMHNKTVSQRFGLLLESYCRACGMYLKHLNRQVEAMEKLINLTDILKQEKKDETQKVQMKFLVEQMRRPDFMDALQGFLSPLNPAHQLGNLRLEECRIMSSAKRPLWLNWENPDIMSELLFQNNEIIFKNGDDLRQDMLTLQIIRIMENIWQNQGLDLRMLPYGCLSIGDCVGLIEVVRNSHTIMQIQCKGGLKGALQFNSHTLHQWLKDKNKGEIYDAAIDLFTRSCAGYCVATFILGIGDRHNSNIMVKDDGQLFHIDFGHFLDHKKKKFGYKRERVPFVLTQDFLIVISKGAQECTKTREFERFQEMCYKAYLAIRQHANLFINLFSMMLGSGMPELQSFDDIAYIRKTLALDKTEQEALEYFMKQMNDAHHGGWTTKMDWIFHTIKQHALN
Sequence of PI3Kα (P27986 whole entry partner): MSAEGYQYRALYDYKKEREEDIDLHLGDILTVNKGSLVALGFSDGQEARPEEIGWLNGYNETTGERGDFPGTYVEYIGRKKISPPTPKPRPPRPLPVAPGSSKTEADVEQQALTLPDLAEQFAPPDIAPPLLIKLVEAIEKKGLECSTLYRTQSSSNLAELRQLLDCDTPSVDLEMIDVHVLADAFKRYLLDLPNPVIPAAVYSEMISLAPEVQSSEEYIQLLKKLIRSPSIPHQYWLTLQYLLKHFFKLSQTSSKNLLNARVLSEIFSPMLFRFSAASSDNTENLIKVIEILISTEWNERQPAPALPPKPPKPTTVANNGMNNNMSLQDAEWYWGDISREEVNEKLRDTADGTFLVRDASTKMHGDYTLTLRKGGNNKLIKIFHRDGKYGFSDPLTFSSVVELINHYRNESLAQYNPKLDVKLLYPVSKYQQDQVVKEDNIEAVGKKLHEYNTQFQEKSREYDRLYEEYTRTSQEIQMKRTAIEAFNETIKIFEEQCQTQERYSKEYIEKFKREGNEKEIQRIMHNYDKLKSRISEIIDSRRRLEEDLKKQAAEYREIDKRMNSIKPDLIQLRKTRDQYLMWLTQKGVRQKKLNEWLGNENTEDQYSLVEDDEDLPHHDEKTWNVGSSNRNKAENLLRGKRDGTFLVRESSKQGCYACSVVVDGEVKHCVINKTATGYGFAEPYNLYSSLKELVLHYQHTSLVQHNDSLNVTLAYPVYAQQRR
Experimental: as §1

[11] = mean of three independent experiments, read-out: IC50 against PI3Kα
[12] = mean of three independent experiments
[13] = Figure 5 activity bins, read-out: IC50 range in SAR figure (PI3Kα)

## Nc1cc(C(F)(F)F)c(-c2cc(N3CCOCC3)nc(N3CCOCC3)n2)cn1 [BKM-120, Buparlisib, reference compound]
[1]
  IC50: 0.28 ± 0.04 µM
[2]
  Number of bacterial colony revertant mutations (mean ± SD) TA100: 555 ± 94
[3]
  IC50: 0.41 ± 0.06 µM
[4]
  Number of bacterial colony revertant mutations (mean ± SD) TA98: 241 ± 55
[5]
  IC50: 2.24 ± 0.14 µM
[6]
  IC50: 2.15 ± 0.19 µM
[7]
  IC50: 0.89 ± 0.06 µM
[8]
  IC50: 0.98 ± 0.1 µM

## COc1cc(N)c(Cl)cc1C(=O)NC1CCN(CCCOc2ccc(F)cc2)CC1OC (stereo not shown) [Cisapride, reference compound]
[9]
  IC50: 0.41 ± 0.06 µM

## CCOC(=O)C1CCN(c2cc(-c3cnc(N)cc3C(F)(F)F)nc(N3CCOCC3)n2)CC1 [Compound 12a]
[10]; [11]
  IC50: 2.29 µM

## CCOC(=O)C1CCN(c2nc(-c3cnc(N)cc3C(F)(F)F)cc(N3CCOCC3)n2)CC1 [Compound 12b]
[10]; [11]
  IC50: 0.685 ± 0.0626 µM

## c1nn(C2CCNCC2)cc1-c1cc(N2CCOCC2)nc(N2CCOCC2)n1 [Compound 12c]
[10]; [12]
  IC50 against PI3Kα: no activity
[10]; [11]
  IC50: > 10 µM

## COc1ccc(-c2cc(N3CCOCC3)nc(N3CCOCC3)n2)cn1 [Compound 12d]
[10]; [12]
  IC50 against PI3Kα: poor activity
[10]; [11]
  IC50: 1.01 µM

## c1nn(C2CCNCC2)cc1-c1nc(N2CCOCC2)nc(N2CCOCC2)n1 [Compound 12e]
[10]; [12]
  IC50 against PI3Kα: no activity
[10]; [11]
  IC50: > 10 µM

## CCOC(=O)C1CCN(c2nc(-c3cnc(N)cc3C(F)(F)F)nc(N3CCOCC3)n2)CC1 [Compound 12f]
[10]; [11]
  IC50: 0.371 ± 0.0454 µM

## N#Cc1c(-c2cn[nH]c2)nc(N2CCOCC2)nc1N1CCOCC1 [Compound 17a]
[10]; [13]
  IC50: 0.03 to 0.3 µM
[10]; [11]
  IC50: 0.162 ± 0.0131 µM

## N#Cc1c(-c2cccc3[nH]ncc23)nc(N2CCOCC2)nc1N1CCOCC1 [Compound 17b]
[10]; [13]
  IC50: 0.03 to 0.3 µM
[10]; [11]
  IC50: 0.254 ± 0.0269 µM

## Cc1nn(C)cc1-c1nc(N2CCOCC2)nc(N2CCOCC2)c1C#N [Compound 17c]
[10]; [11]
  IC50: 1.36 µM

## N#Cc1c(-c2cnn(C3CCNCC3)c2)nc(N2CCOCC2)nc1N1CCOCC1 [Compound 17d]
[10]; Figure 5 activity bins
  IC50 range in SAR figure (PI3Kα): no activity
[10]; [11]
  IC50: > 10 µM

From article PMC11533140 (Frontiers in Pharmacology, 2024)
